The target in assay [1] is T1, cyclooxygenase-I (human COX-1) (Homo sapiens, UniProt P23219).
T1 construct: arachidonic acid-induced aggregation of washed human thrombocytes; endogenous in cells; host or cells: washed human thrombocytes (blood platelets)
The experiment in a line: Human COX-1 Test (inhibition of arachidonic acid-induced aggregation of washed human thrombocytes). The class given is cell-based. To be noted: arachidonic acid 10 μM final concentration, 37° C., test substance added 2 minutes before. As to the method: Inhibition of the arachidonic acid-induced aggregation of washed human thrombocytes was used as a test system for an estimation of the inhibition of cyclooxygenase-I. A thrombocyte suspension at 37° C. was added to the test substances 2 minutes before addition of the arachidonic acid (10 μM final concentration) and the aggregation course was recorded via an aggregometer. With the assistance of a concentration-effect curve, the concentration of test substance was determined at which 50% aggregation was measured (IC50).

Assay [2] addresses T2, cyclooxygenase-II (human COX-2) (Homo sapiens, UniProt P35354).
T2 construct: endogenous in cells
T2 sequence (P35354 18-604): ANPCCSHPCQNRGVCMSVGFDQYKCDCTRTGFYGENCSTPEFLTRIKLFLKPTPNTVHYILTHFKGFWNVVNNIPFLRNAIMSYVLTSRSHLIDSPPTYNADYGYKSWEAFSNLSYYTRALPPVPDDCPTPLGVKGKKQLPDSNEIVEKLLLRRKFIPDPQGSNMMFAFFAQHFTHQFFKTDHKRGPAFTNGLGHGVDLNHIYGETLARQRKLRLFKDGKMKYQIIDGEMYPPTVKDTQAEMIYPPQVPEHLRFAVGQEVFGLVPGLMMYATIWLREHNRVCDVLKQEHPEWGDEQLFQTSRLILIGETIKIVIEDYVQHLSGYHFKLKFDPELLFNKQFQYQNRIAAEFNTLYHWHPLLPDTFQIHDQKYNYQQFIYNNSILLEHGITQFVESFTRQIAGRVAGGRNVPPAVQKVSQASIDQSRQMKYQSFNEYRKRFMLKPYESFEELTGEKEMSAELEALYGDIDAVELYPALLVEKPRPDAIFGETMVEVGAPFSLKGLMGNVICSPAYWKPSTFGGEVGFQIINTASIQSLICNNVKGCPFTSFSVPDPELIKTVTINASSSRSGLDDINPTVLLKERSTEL
Briefly: Human COX-2 Test (LPS-stimulated human monocytoid cell line, arachidonic acid, ELISA of cyclooxygenase products). It counts as cell-based. To be noted: for IC50: LPS-stimulated human monocytoid cell line, half an hour incubation, then arachidonic acid 15 minutes, 37° C.; for COX I/COX II (selectivity): ratio of COX I IC50 to COX II IC50. As to the method:
Cells of a human monocytoid cell line were stimulated with lipopolysaccharide (LPS) (incubator at 37° C., 5% CO2 -enriched atmosphere and almost 100% atmospheric humidity), in order to induce COX-2. Following this, the culture medium (RPMI 1640, enriched with 10% FCS, 2 mM glutamine, 10000 U/ml penicillin, […] and 1 mM pyruvate) is refreshed and potential inhibitor substances of cyclooxygenase-II, dissolved in culture medium or in phosphate-buffered saline or in some other solvent compatible with cell cultures, are added and then incubated for half an hour as described above. Arachidonic acid is added by pipette and incubation is carried out for a further 15 minutes. The culture supernatant of the cells is removed and its content of products of cyclooxygenase metabolism (e.g. Prostaglandin E2, Prostaglandin F1a, Thromboxane B2) is measured by ELISA.
(In general: An ELISA detects its analyte on a solid surface through an enzyme-linked reagent.)

T1 sequence (P23219 24-599): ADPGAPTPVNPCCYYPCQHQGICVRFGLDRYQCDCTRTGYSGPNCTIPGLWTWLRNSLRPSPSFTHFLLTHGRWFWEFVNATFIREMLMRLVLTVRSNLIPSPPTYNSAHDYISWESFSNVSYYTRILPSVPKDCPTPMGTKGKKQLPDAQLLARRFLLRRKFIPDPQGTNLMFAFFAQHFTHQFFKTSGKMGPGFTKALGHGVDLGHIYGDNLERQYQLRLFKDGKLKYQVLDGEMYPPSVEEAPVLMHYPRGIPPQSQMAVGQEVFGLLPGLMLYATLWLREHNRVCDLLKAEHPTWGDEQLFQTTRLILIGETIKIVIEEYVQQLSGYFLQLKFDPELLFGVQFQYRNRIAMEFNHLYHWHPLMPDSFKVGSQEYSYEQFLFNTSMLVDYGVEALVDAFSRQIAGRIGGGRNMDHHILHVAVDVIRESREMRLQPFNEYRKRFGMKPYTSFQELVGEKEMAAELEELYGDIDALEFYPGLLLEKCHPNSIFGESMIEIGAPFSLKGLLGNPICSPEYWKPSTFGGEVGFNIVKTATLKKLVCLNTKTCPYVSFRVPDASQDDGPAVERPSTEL

`CS(=O)(=O)Nc1ccc(S(N)(=O)=O)c(Cl)c1Sc1ccc(Cl)cc1Cl` [Example 1, 3-(2,4-Dichlorophenylthio)-2-chloro-4-methylsulphonylamino-benzosulphonamide]: in assay [1], half-maximal inhibition (IC50) was put at 25 µM. In assay [2], half-maximal inhibition (IC50) required 0.1 µM and the “COX I/COX II (selectivity)” value turned out to be 250.
The corresponding values for `C=CS(=O)(=O)Nc1ccc(S(N)(=O)=O)cc1Sc1ccc(Cl)cc1Cl` [Example 6, 3-(2,4-dichlorophenylthio)-4-vinylsulphonyl-amino-benzosulphonamide] are 20 µM, 0.1 µM and 200.

A word on the IC50: it is the concentration that gives 50% inhibition. The low end stands for higher potency, the high end for lower potency.

(Values after US6297282A, “Substituted derivatives of benzosulphonamides as inhibitors of the enzyme cyclooxygenase II” (Nycomed Austria GmbH, priority 1997, dated 2001).)
